d = 2'-deoxy (DNA); m = 2'-O-methyl
Key:
MRSA (ATCC BAA1707) = assay: MRSA vs MSSA detection on probe-embedded agar with/without cefoxitin, 96-well plates; assay type: cell-based, Staphylococcus aureus; conditions: 1 μM probe in TSA-based media with/without cefoxitin, 37° C.
Description: Tryptic Soy Agar (BD Cat. #236950) was autoclaved according to the manufacturer's instructions and cooled down to 50-60° C. Then, pre-sterilized additives, including Tris*HCl (pH 9.0) (adjusted to 50 mM with the following stock solution: Rockland Cat. #MB028-1000) and CaCl2) (adjusted to 15 mM with the following stock solution: Sigma-Aldrich Cat. #21115-100ML) were added. 1 μM or 2 μM AttoPoly T 4mer and 4 μg/mL Cefoxitin (Alfa Aesar Cat. #AAJ6689103) were also included where indicated. 90 μL of the agar mixtures were pipetted into the wells of clear-bottom 96-well plates (Thermo Scientific, nunc Cat. #265301) and allowed to solidify. […]
(§1) S. aureus (ATCC 29213) cultures were grown in Tryptic Soy Broth (BD Cat. #211825) overnight at 37° C. with shaking at 300-400 rpm. […] Plates were incubated at 37° C. and imaged using an IO-Rodeo fluorescent imager (IO-Rodeo, Large, Blue LED) and an iPhone 8 camera, and fluorescence was also concurrently measured with a Synergy H1 microplate reader (BioTek).
(§2) Two fluorescence measurement formats were used to detect the growth of target bacterial species on agar growth media. […] The fluorescence of the 96-well plates was also measured with a Bio-Tek fluorescence plate-reader using fluorescence filters tailored for green fluorescence, providing quantitative data.

S. aureus (ATCC 29213) = assay: S. aureus detection on probe-embedded agar Petri dishes (fluorescence imaging); assay type: cell-based, Staphylococcus aureus; conditions: agar plates streaked with <1000 cells, 37° C., fluorescence plate imaging (SASelect: chromogenic agar)
Description: (§3) Tryptic Soy Agar (BD Cat. #236950) was autoclaved according to the manufacturer's instructions and cooled down to 50-60° C. Then, pre-sterilized components, including Tris-HCl (pH 9.0) (adjusted to 50 mM using the following stock solution: Rockland Cat. #MB028-1000) and CaCl2) (adjusted to 15 mM using the following stock solution: Sigma-Aldrich Cat. #21115-100ML) were added and the resulting mixture was poured into 60 mm Petri dishes (Corning Cat. #430589). 1 μM or 2 μM AttoPoly T 4mer (IDT, custom order) and 4 μg/mL Cefoxitin (Alfa Aesar Cat. #AAJ6689103) were also included where indicated. The agar mixtures were allowed to solidify, then the Petri dishes were sealed with parafilm (Bemis Cat. #999) and stored at 4° C., protected from light.
S. aureus (ATCC 29213) cultures were grown in Tryptic Soy Broth (BD Cat. #211825) overnight at 37° C. with shaking at 300-400 rpm. Dilutions to […] were made and these were streaked on agar Petri dishes with 1 μL calibrated inoculation loops (Fisher Scientific, Fisherbrand Cat. #22363601). […]
as §2

[1] = tested on: S. lugdunensis (ATCC 700328); assay: Specificity control on probe-embedded agar plates: S. lugdunensis; assay type: cell-based, Staphylococcus lugdunensis; conditions: 8 hours after plating
Description: as §3
(§4) Two fluorescence measurement formats were used to detect the growth of target bacterial species on agar growth media. Agar media poured in 60 mm dishes or distributed to the wells of 96-well clear-bottomed plates were placed on an LED transilluminator (IORodeo) that emits blue light. A light filter was placed over the plates or dishes to block the LED-emitted light, but the filter still allows green light to pass, which is captured with an iPhone camera. […] The fluorescence of the 96-well plates was also measured with a Bio-Tek fluorescence plate-reader using fluorescence filters tailored for green fluorescence, providing quantitative data.

E. coli (ATCC 25922) [2] = assay: Specificity control on probe-embedded agar plates: E. coli; assay type: cell-based, Escherichia coli; conditions: 8 hours after plating
Description: as §3, §4

nuclease of S. pyogenes = assay: Probe sensitivity to S. pyogenes nuclease; assay type: biochemical
S. pyogenes (ATCC 12344) [3] = assay: S. pyogenes detection on selective fluorogenic agar in 96-well plates; assay type: cell-based, Streptococcus pyogenes; conditions: 0.5 μM probe, 96-well plate, in the presence of colistin (2 μg/ml), 37° C.
Description: Tryptic Soy Agar (BD Cat. #236950) was autoclaved according to the manufacturer's instructions and cooled down to 50-60° C. Then, pre-sterilized components, including Tris-HCl (pH 8.0) (adjusted to 50 mM with the following stock solution: Fisher Scientific Cat. #BP1758-100) and MgCl2 (adjusted to 20 mM with the following stock solution: Invitrogen Cat. #AM9530G) were added. 0.5 μM Self-Hyb ATTO and 2 μg/mL Colistin (Alfa Aesar Cat. #AAJ67415XF) were also included where indicated. 90 μL of the agar mixtures were pipetted into the wells of clear-bottom 96-well plates (Thermo Scientific, nunc Cat. #265301) and allowed to solidify. […]
as §1, with “pyogenes (ATCC® 12344™)” for “aureus (ATCC 29213)”, “with” for “using”, “also measured” for “also”, “concurrently” for “concurrently measured”
as §2

S. pyogenes (ATCC 12344) [4] = assay: S. pyogenes detection on probe-embedded agar plates; assay type: cell-based, Streptococcus pyogenes; conditions: agar plates with 0.5 μM probe, streaked with 10,000 cells, 37° C.
Description: Tryptic Soy Agar (BD Cat. #236950) was autoclaved according to the manufacturer's instructions and cooled down to 50-60 degrees C. Then, pre-sterilized components including Tris-HCl (pH 8.0) (adjusted to 50 mM with the following stock solution: Fisher Scientific Cat. #BP1758-100) and MgCl2 (adjusted to 20 mM with the following stock solution: Invitrogen Cat. #AM9530G) were added and the resulting mixture was poured into 60 mm Petri dishes (Corning Cat. #430589). 0.5 μM Self-Hyb ATTO and 2 μg/mL Colistin (Alfa Aesar Cat. #AAJ67415XF) were also included where indicated. The agar mixtures were allowed to solidify. Then the Petri dishes were sealed with parafilm (Bemis Cat. #999) and stored at 4° C., protected from light.
S. pyogenes (ATCC® 12344) cultures were grown in Tryptic Soy Broth (BD Cat. #211825) overnight at 37° C. with shaking at 300-400 rpm. Dilutions to […] were made and streaked on agar Petri dishes with 1 μL calibrated inoculation loops (Fisher Scientific, Fisherbrand Cat. #22363601). […]
as §2

E. coli (ATCC 25922) [5] = assay: E. coli detection on fluorogenic agar in 96-well plates; assay type: cell-based, Escherichia coli; conditions: 0.5 μM probe in TSA-based media, 96-well plate, 37° C.; vs S. aureus and S. pyogenes
Description: Tryptic Soy Agar (BD Cat. #236950) was autoclaved according to the manufacturer's instructions and cooled down to 50-60° C. Then, pre-sterilized components, including Tris-HCl (pH 8.0) (adjusted to 50 mM with the following stock solution: Fisher Scientific Cat. #BP1758-100), MgCl2 (adjusted to 20 mM with the following stock solution: Invitrogen Cat. #AM9530G), and Triton® X-100 (adjusted to 1% with the following stock solution: Fisher Scientific Cat. #50-751-7090). 0.5 μM Self-Hyb ATTO was also included where indicated. […]
as §1, with “E. coli” for “S. aureus”, “25922)” for “29213)”, “also measured” for “also”, “concurrently” for “concurrently measured”
as §2

Endonuclease I = target: T1, Endonuclease I (Escherichia coli, UniProt P25736); assay: Probe sensitivity to Endonuclease I; assay type: biochemical
T1 sequence (P25736 23-235): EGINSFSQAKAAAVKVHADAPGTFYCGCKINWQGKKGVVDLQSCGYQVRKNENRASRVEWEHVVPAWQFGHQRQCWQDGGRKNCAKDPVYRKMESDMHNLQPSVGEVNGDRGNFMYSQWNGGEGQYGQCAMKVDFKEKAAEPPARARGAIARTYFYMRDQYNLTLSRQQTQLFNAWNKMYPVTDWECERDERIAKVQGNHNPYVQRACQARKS

most nucleases = assay: Probe resistance to nucleases in general; assay type: biochemical
[6] = target: micrococcal nuclease of S. aureus (Staphylococcus aureus, UniProt P00644); assay: Probe sensitivity to micrococcal nuclease; assay type: biochemical

Substance: 5′-ATTO488-TTTT-ZEN-RQSp-3′ [AttoPoly T 4mer]
- time at which MRSA can be distinguished from MSSA (MRSA (ATCC BAA1707)): 8 to 10 h
- time to detection of S. aureus colonies after plating (S. aureus (ATCC 29213)): ≤ 8 h
- fluorescence produced by S. lugdunensis on probe-embedded agar [1]: did not produce fluorescence
- fluorescence produced by E. coli on probe-embedded agar (E. coli (ATCC 25922) [2]): did not produce fluorescence

Substance: 5′-ATTO488-fC-fU-fA-fC-fG-fU-fA-fG-ZEN-RQSp-3′ (CUACGUAG; 2'-fluoro; ATTO488, ZEN, RQSp quencher; (1)..(8) Each base pair in this sequence is a 2′-fluoro modified nucleotide. Please see Table 1 of the Specification.) [Self-Hyb ATTO]
- sensitivity to a nuclease of S. pyogenes (nuclease of S. pyogenes): sensitive
- time to detection of low concentrations of S. pyogenes (S. pyogenes (ATCC 12344) [3]): ≤ 10 h
- time to detection of S. pyogenes (S. pyogenes (ATCC 12344) [4]): 19 h
- time to specific detection of E. coli (E. coli (ATCC 25922) [5]): 8 h
- sensitivity to Endonuclease I (Endonuclease I): sensitive

Substance: CTACGTAG (DNA, backbone not given here; further chemistry not fully specified) [DNA-SH]
- sensitivity to Endonuclease I (Endonuclease I): sensitive

Substance: fUfUfUfAfUfGfCfAfUfAfAfA (UUUAUGCAUAAA; all 2'-fluoro, backbone not given here; thiol or fluorophore label) [SH-Fl 5UUU]
- sensitivity to a nuclease of S. pyogenes (nuclease of S. pyogenes): sensitive
- sensitivity to Endonuclease I (Endonuclease I): sensitive

Substance: mCmUmAmCmGmUmAmG (CUACGUAG; all 2'-O-methyl, backbone not given here; thiol modification) [2′-OMe SH]
- resistance to nucleases (most nucleases): resistant to most nucleases

Substance: mUTTmUmUmUmUmUmUmUmU (UTTUUUUUUUU; sugars from the 5' end m1 d2 m8, backbone not given here) [P2&3 TT Probe]
- sensitivity to micrococcal nuclease of S. aureus [6]: sensitive

Reference: US20220380828A1, “MICROBIAL DETECTION PLATFORM” (NUCLEASE PROBE TECHNOLOGIES, INC., priority 2019, published 2022)
